Results reported in paper PMC4604170 (PLoS ONE, 2015).

What was measured:
[1] = Corneal and aqueous humour vancomycin quantification by LC-MS; format: in vivo, New Zealand White rabbits; details: for Vancomycin in the aqueous humour: rabbit; for Vancomycin in the aqueous humour / Corneal vancomycin concentration / Aqueous humour vancomycin concentration: LC-MS; for Corneal vancomycin concentration / Aqueous humour vancomycin concentration: after 4 days of vancomycin 1.4% drops 5 times/day; for Period of drop instillation required to achieve MIC in the cornea: vancomycin 1.4% drops five times a day
Procedure: Prior to starting the antibiotic regimen, the cornea of the right eye had complete epithelial debridement following application of 20% alcohol for 60 seconds, whereas the epithelium of the left cornea was not debrided.
Aqueous humour samples (120–150 μL) were extracted with three equivalents of methanol (Merck, Darmstadt, Germany). The samples were shaken for 5 min at 1200 rpm (20°C) and centrifuged for 10 min at 16,000 g (4°C). The supernatants were transferred to fresh tubes and dried in a vacuum concentrator. Cornea samples were cut and ground with a pestle while frozen. They were next homogenized on ice with 300 μL of 3:1 methanol/water with 0.1% formic acid (Sigma Aldrich, St. Louis, MO, USA) for 1 min. The homogenates were then spun down briefly on a capsule centrifuge and supernatants transferred to fresh tubes. The residues were homogenized and spun down a second time. The extracts were combined and centrifuged for 10 min at 16,000 g (4°C). The supernatants were transferred to fresh tubes and dried in a vacuum concentrator. Samples were reconstituted in water (Ultrapure water, Millipore purification unit) and centrifuged for 5 min at 16,000 g (10°C) before transferring to autosampler vials for LC-MS/MS analysis.
Chromatographic separation was performed on a Waters 2695 Separations Module (Milford, MA, USA) with a Thermo Scientific Hypersil Gold C18 column (Whaltham, MA, USA) (2.1 × 50 mm, 3 μm). The mobile phase was A: 0.1% formic acid in water and B: 0.1% formic acid in acetonitrile. The gradient profile was 2% B at 0 min, 25% B at 6 min, 90% B from 6.5 to 8.5 min and 2% B from 9 to 13 min. The flow rate was 0.3 ml/min. The autosampler and column heater temperatures were maintained at 10 and 30°C, respectively. Detection was performed by an AB Sciex API 2000 triple quadrupole mass spectrometer (Concord, Canada) with an electrospray ionization source operating in the positive ionization mode. The ion source voltage was set to 5 kV.

[2] = system: Staphylococcus aureus ATCC29213; test: Effectiveness of prophylaxis once the corneal MIC was achieved (inoculation after 16 days of drops); format: in vivo, New Zealand White rabbits; details: inoculation after 16 days of vancomycin 1.4% drops 5 times/day; 3 rabbits with titanium film implant
Procedure: Following bacterial inoculation, development of infection was assessed clinically with SLP and AS-OCT imaging.

[3] = no data for the cornea; cited from earlier work
Excerpt: It may therefore bind to lectin-like proteins of the stromal extracellular matrix, reducing its bioavailability fur ...

Q: For `CN[C@H](CC(C)C)C(=O)N[C@H]1C(=O)N[C@@H](CC(N)=O)C(=O)N[C@H]2C(=O)N[C@H]3C(=O)N[C@H](C(=O)N[C@H](C(=O)O)c4cc(O)cc(O)c4-c4cc3ccc4O)[C@H](O)c3ccc(c(Cl)c3)Oc3cc2cc(c3O[C@@H]2O[C@H](CO)[C@@H](O)[C@H](O)[C@H]2O[C@H]2C[C@](C)(N)[C@H](O)[C@H](C)O2)Oc2ccc(cc2Cl)[C@H]1O` [vancomycin], which “Vancomycin in the aqueous humour” value ([1]; after 2 days of vancomycin 1.4% drops 5 times/day) is on record?
A: The value was “not detected”.

Q: And the Corneal vancomycin concentration ([1]; with epithelial removal (right eye, 20% alcohol 60 seconds), 3 rabbits, p = 0.115)?
A: Its Corneal vancomycin concentration is 2.57 ± 0.40 µg/mL.

Q: What about the “Aqueous humour vancomycin concentration” value ([1]; with epithelial removal, p = 0.063) of the same compound?
A: Its value is 0.43 ± 0.15 µg/mL.

Q: And the Corneal vancomycin concentration ([1]; without epithelial removal (left eye), 3 rabbits without implant)?
A: The Corneal vancomycin concentration was 1.36 ± 0.45 µg/mL.

Q: And the “Aqueous humour vancomycin concentration” value ([1]; without epithelial removal)?
A: Its value is 0.04 ± 0.005 µg/mL.

Q: What about the “Vancomycin in the aqueous humour” value ([1]; day 10 of vancomycin 1.4% drops 5 times/day) of the same compound?
A: Its value is “below the level of quantification”.

Q: What about the “Vancomycin in the aqueous humour” value ([1]; day 16 of vancomycin 1.4% drops 5 times/day) of the same compound?
A: The value was “below the level of quantification”.

Q: What about the “Period of drop instillation required to achieve MIC in the cornea” value ([1]; 100% compliance, epithelium not debrided) of the same compound?
A: Its value is 16 days.

Q: What about the “Period of drop instillation required to achieve MIC in the cornea” value ([1]; epithelium debrided) of the same compound?
A: The value was no more than 4 days.

Q: And the “Rabbits showing evidence of corneal infection by day 2 post-inoculation” value [2]?
A: Its value is 2 of the 3.

Q: What about the Binding to proteins [3] of the same compound?
A: Its Binding to proteins is “moderate”.
